Measured values as given in the NIST ThermoML archive (doi:10.1021/je200886j).

How the values were obtained:
[1] = 101 kPa, Liquid; for mass density: Pycnometric method
[2] = wn = mass fraction of the nth substance listed; settings: 101 kPa, Liquid; for mass density: Pycnometric method

CCCCn1cc[n+](C)c1.F[B-](F)(F)F [1-butyl-3-methylimidazolium tetrafluoroborate]
[1]
Settings | mass density [kg/m3] | viscosity [mPa·s]
298.15 K | 1200.6 | 93.81
303.15 K | 1197.7 | 71.76
308.15 K | 1194.8 | 56.41
313.1 K | 1191.5 | 45.6
318.15 K | 1188.4 | 37.32

CCCCn1cc[n+](C)c1.F[B-](F)(F)F [1-butyl-3-methylimidazolium tetrafluoroborate] + CN1CCCC1=O
[2], w1 = 1
Settings | mass density [kg/m3] | viscosity [mPa·s]
298.15 K | 1200.6 | 93.81
303.15 K | 1197.7 | 71.76
308.15 K | 1194.8 | 56.41
313.1 K | 1191.5 | 45.6
318.15 K | 1188.4 | 37.32

CN1CCCC1=O [N-methylpyrrolidone]
[1]
Settings | mass density [kg/m3] | viscosity [mPa·s]
298.15 K | 1028.3 | 1.683
303.15 K | 1024.5 | 1.558
308.15 K | 1020.1 | 1.47
313.1 K | 1015.8 | 1.337
318.15 K | 1011.7 | 1.248

CN1CCCC1=O [N-methylpyrrolidone] + CCCCn1cc[n+](C)c1.F[B-](F)(F)F
[2]
Settings | mass density, 298.15 K [kg/m3] | mass density, 303.15 K [kg/m3] | mass density, 308.15 K [kg/m3] | mass density, 313.1 K [kg/m3] | mass density, 318.15 K [kg/m3] | viscosity, 298.15 K [mPa·s] | viscosity, 303.15 K [mPa·s] | viscosity, 308.15 K [mPa·s] | viscosity, 313.1 K [mPa·s] | viscosity, 318.15 K [mPa·s]
w2 = 0 | 1028.3 | 1024.5 | 1020.1 | 1015.8 | 1011.7 | 1.683 | 1.558 | 1.47 | 1.337 | 1.248
w2 = 0.5 | 1115.6 | 1111.8 | 1107.9 | 1104.1 | 1100.3 | 8.196 | 7.291 | 6.382 | 5.63 | 5.045
w2 = 0.6999 | 1148.8 | 1145.6 | 1142 | 1138.3 | 1135 | 19.33 | 16.03 | 13.51 | 11.63 | 10.07
w2 = 0.8981 | 1182 | 1179.4 | 1176.2 | 1173.1 | 1170.1 | 49.46 | 39.75 | 32.43 | 26.93 | 22.47
